Results on 27 molecules are retold here after patent US11229623B2 (GlaxoSmithKline Intellectual Property (No.2) Limited, priority 2016, dated 2022).

The target in one assay is T1, human TRPV4 (Homo sapiens, UniProt Q9HBA0).
T1 construct: expressed in transfected cells; host or cells: BHK/AC9 cells transduced with BacMam virus
T1 sequence (Q9HBA0 whole entry): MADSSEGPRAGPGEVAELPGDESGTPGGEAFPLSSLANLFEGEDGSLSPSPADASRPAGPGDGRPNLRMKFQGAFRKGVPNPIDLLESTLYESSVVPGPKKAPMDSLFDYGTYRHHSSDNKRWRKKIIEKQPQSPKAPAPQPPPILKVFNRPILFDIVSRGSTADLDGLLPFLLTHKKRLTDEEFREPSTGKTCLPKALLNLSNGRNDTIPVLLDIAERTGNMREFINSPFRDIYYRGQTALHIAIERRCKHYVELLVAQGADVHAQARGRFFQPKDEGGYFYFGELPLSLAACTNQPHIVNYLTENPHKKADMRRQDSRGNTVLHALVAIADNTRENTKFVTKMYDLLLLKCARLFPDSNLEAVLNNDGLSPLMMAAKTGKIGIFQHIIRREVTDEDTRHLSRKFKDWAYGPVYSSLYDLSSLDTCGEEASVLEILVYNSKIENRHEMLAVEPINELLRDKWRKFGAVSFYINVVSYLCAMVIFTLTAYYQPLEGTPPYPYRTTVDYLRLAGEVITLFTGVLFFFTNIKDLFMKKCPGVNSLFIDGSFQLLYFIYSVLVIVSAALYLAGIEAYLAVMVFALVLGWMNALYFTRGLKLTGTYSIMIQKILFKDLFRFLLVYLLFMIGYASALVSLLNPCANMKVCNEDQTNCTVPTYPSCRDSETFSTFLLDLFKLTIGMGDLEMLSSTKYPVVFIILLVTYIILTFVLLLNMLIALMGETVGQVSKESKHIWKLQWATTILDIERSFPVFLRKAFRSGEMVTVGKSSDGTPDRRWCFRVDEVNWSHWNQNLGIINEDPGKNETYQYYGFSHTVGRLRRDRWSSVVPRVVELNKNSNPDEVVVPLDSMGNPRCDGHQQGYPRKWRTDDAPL
In words: FLIPR assay for hTRPV4 expressed in BHK cells: inhibition of Agonist Compound-induced calcium signal. It is filed as cell-based.
Conditions: not given
The essentials:
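Calcium influx through TRPV4 tracked by Fluo-4 fluorescence on FLIPR. Cells: BHK/AC9 transduced with BacMam-hTRPV4 at MOI 78, 24 h culture post-plating (15,000 cells/well). Dye loading: 2 μM Fluo-4 AM with 500 μM Brilliant Black quencher, 1-1.5 h, room temperature, dark.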
Usually IC50 stands for the point on the concentration scale where inhibition reaches its midpoint. In the case of `C[C@H](O)[C@]1(O)CN(S(=O)(=O)c2ccc(Cl)cn2)C[C@@H]1Oc1ccc(C#N)c(F)c1` [Example 191], the IC50 lay within 100 to 1000 nM.

Still in this assay, the particulars now being: hTRPV4 in BHK/AC9 cells, FLIPR calcium signal, agonist at EC80; reported as range class; read-out: IC50.
`CC(C)COc1cc(C#N)c(F)cc1O[C@H]1CN(S(=O)(=O)c2ccc(C(F)(F)F)cc2C#N)C[C@@]1(O)CO` [Example 165, 4-(((3S,4R)-1-((2-cyano-4-(trifluoromethyl)phenyl)sulfonyl)-4-hydroxy-4-(hydroxymethyl)pyrrolidin-3-yl)oxy)-2-fluoro-5-isobutoxybenzonitrile]: the IC50 fell in the range of 0.1 to 10 nM.

With `CCCOc1cc(C#N)ccc1O[C@H]1CN(S(=O)(=O)c2ccc(C(F)(F)F)cc2C#N)C[C@@]1(O)CO` [Example 166, 2-(((3R,4S)-4-(4-cyano-2-propoxyphenoxy)-3-hydroxy-3-(hydroxymethyl)pyrrolidin-1-yl)sulfonyl)-5-(trifluoromethyl)benzonitrile], the IC50 is 0.1 to 10 nM.

For the molecule `N#Cc1ccc(O[C@H]2CN(S(=O)(=O)c3ccc(C(F)(F)F)cc3C#N)C[C@@]2(O)CO)c(OCC(F)(F)F)c1` [Example 167, 2-(((3R,4S)-4-(4-cyano-2-(2,2,2-trifluoroethoxy)phenoxy)-3-hydroxy-3-(hydroxymethyl)pyrrolidin-1-yl)sulfonyl)-5-(trifluoromethyl)benzonitrile], the IC50 was 0.1 to 10 nM.

With `N#Cc1ccc(O[C@H]2CN(S(=O)(=O)c3ccc(C(F)(F)F)cc3C#N)C[C@@]2(O)CO)c(O)c1` [Example 168, 2-(((3R,4S)-4-(4-cyano-2-hydroxyphenoxy)-3-hydroxy-3-(hydroxymethyl)pyrrolidin-1-yl)sulfonyl)-5-(trifluoromethyl)benzonitrile], the IC50 lay within 10 to 100 nM.

As for `CCCCOc1cc(C#N)ccc1O[C@H]1CN(S(=O)(=O)c2ccc(C(F)(F)F)cc2C#N)C[C@@]1(O)CO` [Example 169, 2-(((3R,4S)-4-(2-butoxy-4-cyanophenoxy)-3-hydroxy-3-(hydroxymethyl)pyrrolidin-1-yl)sulfonyl)-5-(trifluoromethyl)benzonitrile], the IC50 was in the range of 0.1 to 10 nM.

In the case of `CC(C)COc1cc(C#N)ccc1O[C@H]1CN(S(=O)(=O)c2ccc(C(F)(F)F)cc2C#N)C[C@@]1(O)CO` [Example 170, 2-(((3R,4S)-4-(4-cyano-2-isobutoxyphenoxy)-3-hydroxy-3-(hydroxymethyl)pyrrolidin-1-yl)sulfonyl)-5-(trifluoromethyl)benzonitrile], the IC50 lay in the range of 0.1 to 10 nM.

As for `N#Cc1ccc(O[C@H]2CN(S(=O)(=O)c3ccc(C(F)(F)F)cc3C#N)C[C@@]2(O)CO)c(OCc2ccccc2)c1` [Example 171, 2-(((3R,4S)-4-(2-(benzyloxy)-4-cyanophenoxy)-3-hydroxy-3-(hydroxymethyl)pyrrolidin-1-yl)sulfonyl)-5-(trifluoromethyl)benzonitrile], the IC50 fell in the range of 0.1 to 10 nM.

For `N#Cc1ccc(S(=O)(=O)N2C[C@H](Oc3ccc(C#N)cc3OCC(F)(F)F)[C@](O)(CO)C2)cc1` [Example 172, 4-(((3S,4R)-1-((4-cyanophenyl)sulfonyl)-4-hydroxy-4-(hydroxymethyl)pyrrolidin-3-yl)oxy)-3-(2,2,2-trifluoroethoxy)benzonitrile], the IC50 was 10 to 100 nM.

In the case of `N#Cc1cc(OCC(F)(F)F)c(O[C@H]2CN(S(=O)(=O)c3ccccc3C#N)C[C@@]2(O)CO)cc1F` [Example 173, 4-(((3S,4R)-1-((2-cyanophenyl)sulfonyl)-4-hydroxy-4-(hydroxymethyl)pyrrolidin-3-yl)oxy)-2-fluoro-5-(2,2,2-trifluoroethoxy) benzonitrile], the IC50 was 0.1 to 10 nM.

Consider `N#Cc1ccc(S(=O)(=O)N2C[C@H](Oc3cc(F)c(C#N)cc3OCC(F)(F)F)[C@](O)(CO)C2)cn1` [Example 174, 5-(((3R,4S)-4-(4-cyano-5-fluoro-2-(2,2,2-trifluoroethoxy)phenoxy)-3-hydroxy-3-(hydroxymethyl)pyrrolidin-1-yl)sulfonyl) picolinonitrile], for which the IC50 was in the range of 0.1 to 10 nM.

Turning to `N#Cc1cc(OCC(F)(F)F)c(O[C@H]2CN(S(=O)(=O)c3ccc(C(F)(F)F)nc3)C[C@@]2(O)CO)cc1F` [Example 175, 2-fluoro-4-(((3S,4R)-4-hydroxy-4-(hydroxymethyl)-1-((6-(trifluoromethyl)pyridin-3 yl)sulfonyl)pyrrolidin-3-yl)oxy)-5-(2,2,2-trifluoroethoxy) benzonitrile], the IC50 lay in the range of 10 to 100 nM.

Consider `N#Cc1cc(OCC(F)(F)F)c(O[C@H]2CN(S(=O)(=O)c3ccccc3)C[C@@]2(O)CO)cc1F` [Example 176, 2-fluoro-4-(((3S,4R)-4-hydroxy-4-(hydroxymethyl)-1-(phenylsulfonyl)pyrrolidin-3-yl)oxy)-5-(2,2,2-trifluoroethoxy) benzonitrile], for which the IC50 was 10 to 100 nM.

On to `N#Cc1cc(OCC(F)(F)F)c(O[C@H]2CN(S(=O)(=O)c3ccc(Cl)cc3Cl)C[C@@]2(O)CO)cc1F` [Example 177, 4-(((3S,4R)-1-((2,4-dichlorophenyl)sulfonyl)-4-hydroxy-4-(hydroxymethyl)pyrrolidin-3-yl)oxy)-2-fluoro-5-(2,2,2-trifluoroethoxy) benzonitrile], for which the IC50 lay within 0.1 to 10 nM.

Consider `N#Cc1ccc(S(=O)(=O)N2C[C@H](Oc3cc(F)c(C#N)cc3OCC(F)(F)F)[C@](O)(CO)C2)cc1` [Example 178, 4-(((3S,4R)-1-((4-cyanophenyl)sulfonyl)-4-hydroxy-4-(hydroxymethyl)pyrrolidin-3-yl)oxy)-2-fluoro-5-(2,2,2-trifluoroethoxy) benzonitrile], for which the IC50 was 0.1 to 10 nM.

Turning to `CC(C)COc1cc(C#N)c(F)cc1O[C@H]1CN(S(=O)(=O)c2ccccc2C#N)C[C@@]1(O)CO` [Example 179, 4-(((3S,4R)-1-((2-cyanophenyl)sulfonyl)-4-hydroxy-4-(hydroxymethyl)pyrrolidin-3-yl)oxy)-2-fluoro-5-isobutoxybenzonitrile], the IC50 was 0.1 to 10 nM.

As to `CC(C)COc1cc(C#N)c(F)cc1O[C@H]1CN(S(=O)(=O)c2ccc(C#N)cc2)C[C@@]1(O)CO` [Example 180, 4-(((3S,4R)-1-((4-cyanophenyl)sulfonyl)-4-hydroxy-4-(hydroxymethyl)pyrrolidin-3-yl)oxy)-2-fluoro-5-isobutoxybenzonitrile], the IC50 lay in the range of 0.1 to 10 nM.

For the molecule `CC(C)COc1cc(C#N)c(F)cc1O[C@H]1CN(S(=O)(=O)c2ccc(C#N)nc2)C[C@@]1(O)CO` [Example 181, 5-(((3R,4S)-4-(4-cyano-5-fluoro-2-isobutoxyphenoxy)-3-hydroxy-3-(hydroxymethyl)pyrrolidin-1-yl)sulfonyl) picolinonitrile], the IC50 was 0.1 to 10 nM.

`CC(C)COc1cc(C#N)c(F)cc1O[C@H]1CN(S(=O)(=O)c2ccc(C(F)(F)F)cc2)C[C@@]1(O)CO` [Example 182, 2-fluoro-4-(((3S,4R)-4-hydroxy-4-(hydroxymethyl)-1-((4-(trifluoromethyl)phenyl)sulfonyl)pyrrolidin-3-yl)oxy)-5-isobutoxybenzonitrile]: the IC50 is 10 to 100 nM.

On to `CC(C)COc1cc(C#N)c(F)cc1O[C@H]1CN(S(=O)(=O)c2ccc(C(F)(F)F)nc2)C[C@@]1(O)CO` [Example 183, 2-fluoro-4-(((3S,4R)-4-hydroxy-4-(hydroxymethyl)-1-((6-(trifluoromethyl)pyridin-3-yl)sulfonyl)pyrrolidin-3-yl)oxy)-5-isobutoxybenzonitrile], for which the IC50 was in the range of 10 to 100 nM.

`N#Cc1ccc(O[C@H]2CN(S(=O)(=O)c3ccc(C#N)nc3)C[C@@]2(O)CO)c(OCC(F)(F)F)c1` [Example 184, 5-(((3R,4S)-4-(4-cyano-2-(2,2,2-trifluoroethoxy)phenoxy)-3-hydroxy-3-(hydroxymethyl)pyrrolidin-1-yl)sulfonyl) picolinonitrile]: the IC50 lay within 10 to 100 nM.

As for `N#Cc1ccc(O[C@H]2CN(S(=O)(=O)c3ccccc3C#N)C[C@@]2(O)CO)c(OCC(F)(F)F)c1` [Example 185, 4-(((3S,4R)-1-((2-cyanophenyl)sulfonyl)-4-hydroxy-4-(hydroxymethyl)pyrrolidin-3-yl)oxy)-3-(2,2,2-trifluoroethoxy) benzonitrile], the IC50 fell in the range of 0.1 to 10 nM.

Turning to `N#Cc1ccc(O[C@H]2CN(S(=O)(=O)c3ccc(Cl)cn3)C[C@@]2(O)CO)c(OCC(F)(F)F)c1` [Example 186, 4-(((3S,4R)-1-((5-chloropyridin-2-yl)sulfonyl)-4-hydroxy-4-(hydroxymethyl)pyrrolidin-3-yl)oxy)-3-(2,2,2-trifluoroethoxy) benzonitrile], the IC50 was 10 to 100 nM.

As to `N#Cc1cc(OCC(F)(F)F)c(O[C@H]2CN(S(=O)(=O)c3ccc(Cl)cn3)C[C@@]2(O)CO)cc1F` [Example 187, 4-(((3S,4R)-1-((5-chloropyridin-2-yl)sulfonyl)-4-hydroxy-4-(hydroxymethyl)pyrrolidin-3-yl)oxy)-2-fluoro-5-(2,2,2-trifluoroethoxy) benzonitrile], the IC50 lay in the range of 0.1 to 10 nM.

As for `Cc1ccc(S(=O)(=O)N2C[C@H](Oc3cc(F)c(C#N)cc3OCC(C)C)[C@](O)(CO)C2)nn1` [Example 188, 2-fluoro-4-(((3S,4R)-4-hydroxy-4-(hydroxymethyl)-1-((6-methylpyridazin-3-yl)sulfonyl)pyrrolidin-3-yl)oxy)-5-isobutoxybenzonitrile], the IC50 was 10 to 100 nM.

For the molecule `CCC[C@H](O)[C@]1(O)CN(S(=O)(=O)c2ccc(Cl)cn2)C[C@@H]1Oc1ccc(C#N)c(F)c1` [Example 189, 4-(((3S,4R)-1-((5-chloropyridin-2-yl)sulfonyl)-4-hydroxy-4-((S)-1-hydroxybutyl)pyrrolidin-3-yl)oxy)-2-fluorobenzonitrile], the IC50 lay within 10 to 100 nM.

Turning to `C[C@H](O)[C@]1(O)CN(S(=O)(=O)c2ccc(C(F)(F)F)cc2C#N)C[C@@H]1Oc1ccc(C#N)c(F)c1` [Example 190, 4-(((3S,4R)-1-((2-cyano-4-(trifluoromethyl)phenyl)sulfonyl)-4-hydroxy-4-(1-hydroxyethyl)pyrrolidin-3-yl)oxy)-2-fluorobenzonitrile], the IC50 lay in the range of 0.1 to 10 nM.
